The text below walks through data of patent US20120164674A1, “DEVICES AND WASHES FOR BIOMARKER STABILIZATION” (priority 2010, published 2012).

In one assay the test system is peroxidase. Put plainly: Peroxidase assay in saliva (Amplex Red). The settings on record: 500 ppm, 30 minutes, FIGS. 26-29. In kind it is biochemical.
For the next assay, the system named is Galactose Oxidase. The conditions noted are these: dilute (3.5%) saliva; FIG. 13.
A further assay has as its target T1, Lysozyme (Homo sapiens, UniProt P61626).
T1 construct: from tissue; host or cells: saliva (3.5% dilute or 100%)
T1 sequence (P61626 19-148): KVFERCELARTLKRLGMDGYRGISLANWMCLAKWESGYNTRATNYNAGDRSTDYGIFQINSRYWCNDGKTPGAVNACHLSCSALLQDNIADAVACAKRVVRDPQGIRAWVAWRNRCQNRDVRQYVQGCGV
Put plainly: Lysozyme inhibition saliva screening (fluorescein-labeled Micrococcus lysodeikticus). The assay is classed as biochemical. The settings on record: for inhibition of Lysozyme: 100% saliva samples (data not shown); for RFU Reading (60 mins): saliva, test compound prepared at 5,000 ppm; for Lysozyme Inhibitor Activity: dilute (3.5%) saliva, FIG. 12. An excerpt:
At least one assay used for the detection of […], as used herein includes the use of a Micrococcus lysodeikticus labeled with fluorescein. The assay measures lysozyme activity on Micrococcus lysodeikticus cell walls, which are labeled to such a degree that the fluorescence is quenched. Lysozyme activity can relieve this quenching; yielding increased fluorescence that is proportional to lysozyme activity.
For the assay, test compounds are mixed with saliva, prior to the addition of lysozyme substrate. The test compounds, such as GRAS materials, are prepared at a concentration of 5,000 ppm in distilled water. Following this preparation, 50 μl of lysozyme substrate at 1 mg/ml (Molecular Probes EnzChek Lysozyme Assay Kit) that has been pre-heated to 37° C. is added to 50 μl of the test compound. To initiate the assay, 50 μl of a dilute (3.5%) or full strength (100%) saliva solution is added to the mixture. Following the initiation, each mixture is measured at 1 minute intervals using a spectrophotometer (such as Molecular Devices M5 reader) for absorption at 494 nm and fluorescence emission at 518 nm. Temperatures of the mixtures are kept constant at 37° C. during the assay.
A series of GRAS compounds were tested using the Lysozyme assay protocol described above. […] Further details of these five compounds may also be seen in Table 5.

The subject of a further assay is protease. The conditions noted are these: cited from earlier work.

Regarding `O=C(O)c1ccccc1` [CDI #16, Benzoic acid], the peroxidase inhibition entry with peroxidase is reported as “significant peroxidase inhibition capabilities”.

Turning to `Cn1c(=O)c2c(ncn2C)n(C)c1=O` [CDI #33, Caffeine], in the assay on peroxidase, the peroxidase inhibition entry is “significant peroxidase inhibition capabilities”.

As for `COc1ccc(O)c(C(C)(C)C)c1` [CDI-039, 3-tert--butyl-hydroxyanisole], the peroxidase inhibition result with peroxidase is “significant peroxidase inhibition capabilities”. Besides, the “Galactose Oxidase Inhibitor Activity” value with Galactose Oxidase is “shown to have Galactose Oxidase Inhibitor Activity”.

Take `O=C(O)c1ccccc1` [CDI-40, Benzoic acid]: the “Galactose Oxidase Inhibitor Activity” value with Galactose Oxidase was “shown to have Galactose Oxidase Inhibitor Activity”. In addition, on Lysozyme, the “inhibition of Lysozyme” value is reported as “shown to inhibit Lysozyme”, the “RFU Reading (60 mins)” value was found to be 35.82 RFU and the “Lysozyme Inhibitor Activity” value is “shown to have Lysozyme Inhibitor Activity”.

As to `CC(=O)O` [CDI-047, Acetic acid], the “Galactose Oxidase Inhibitor Activity” value in the assay with Galactose Oxidase is on record as “shown to have Galactose Oxidase Inhibitor Activity”. Also, at Lysozyme, the “inhibition of Lysozyme” value is “shown to inhibit Lysozyme”, the “RFU Reading (60 mins)” value came out at 33.53 RFU and the “Lysozyme Inhibitor Activity” value is given as “shown to have Lysozyme Inhibitor Activity”.

B1: Soybeans: primary soybean protease inhibitor, 20.7-22.3 kDa (protein, UniProt P01070 25-205, looked up)
Trypsin inhibitor A: DFVLDNEGNPLENGGTYYILSDITAFGGIRAAPTGNERCPLTVVQSRNELDKGIGTIISSPYRIRFIAEGHPLSLKFDSFAVIMLCVGIPTEWSVVEDLPEGPAVKIGENKDAMDGWFRLERVSDDEFNNYKLVFCPQQAEDDKCGDIGISIDHDDGTRRLVVSKNKPLVVQFQKLDKESL
With B1, the Inhibitory power with protease was 1.2 times times weight.
